The values that follow are results of earlier work, collected in patent US20020192774A1, “Method for processing lignocellulosic material” (priority 2000, published 2002).

This data set concerns yeast. The settings on record: pH values as low as 4.5; Taherzadeh et al., 1997.

As for `CC(=O)O` [Acetic acid], the “acetate concentration at which yeast is able to grow” value is 10 g acetate per litre.
